These compounds were tested against T1, human β3 adrenergic receptor (Homo sapiens, UniProt P13945) (assay: Beta-3 agonist in vitro functional assay: cAMP production (LANCE TR-FRET) in CHO cells stably transfected with the cloned β3 receptor). Settings: Table 5; cAMP, CHO cells; read-out: Human β3 agonist functional activity.
T1 construct: expressed in transfected cells; host or cells: Chinese hamster ovary (CHO) cells, stably transfected
Format: cell-based
Protocol: Chinese hamster ovary (CHO) cells, stably transfected with the cloned β-adrenergic receptor (β1, β2 or β3) are harvested after 3 days of subculturing. Harvesting of cells is done with Enzyme-free Dissociation Media (Specialty Media). Cells are then counted and resuspended in assay buffer (Hank's Balanced salt solution supplemented with 5 mM HEPES, […]) containing a phosphodiesterase inhibitor (IBMX, 0.6 mM). The reaction is initiated by mixing 6,000 cells in 6 μL with 6 μL Alexa Fluor labeled cAMP antibody (LANCE™ kit) which is then added to an assay well containing 12 μL of compound (diluted in assay buffer to 2× final concentration). The reaction proceeds for 30 minutes at RT and is terminated by the addition of 24 ul detection buffer (LANCE™ kit). The assay plate is then incubated for 1 h at RT and time-resolved fluorescence measured on a Perkin Elmer Envision reader or equivalent. The unknown cAMP level is determined by comparing fluorescence levels to a cAMP standard curve.
The non-selective, full agonist β-adrenergic ligand isoproterenol is used at all three receptors to determine maximal stimulation. […] Data are analyzed using Microsoft Excel and Graphpad Prism or an internally developed data analysis software package.

T1 sequence (P13945 whole entry): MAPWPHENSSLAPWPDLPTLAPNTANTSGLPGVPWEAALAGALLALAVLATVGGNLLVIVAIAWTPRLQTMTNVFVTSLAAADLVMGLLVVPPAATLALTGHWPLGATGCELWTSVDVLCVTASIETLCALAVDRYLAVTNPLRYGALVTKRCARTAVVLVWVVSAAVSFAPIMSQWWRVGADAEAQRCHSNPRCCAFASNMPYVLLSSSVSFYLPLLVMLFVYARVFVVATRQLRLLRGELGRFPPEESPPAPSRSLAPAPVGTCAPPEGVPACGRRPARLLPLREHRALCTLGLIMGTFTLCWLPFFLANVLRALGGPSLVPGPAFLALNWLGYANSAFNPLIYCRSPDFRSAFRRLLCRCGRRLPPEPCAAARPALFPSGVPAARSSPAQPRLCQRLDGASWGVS

Question: `O=C(NC1CCN(C(=O)c2ccc(C[C@@H]3CC[C@H]([C@H](O)c4ccccc4)N3)cc2)CC1)OCc1ccccc1` [Example 68] was tested. Which EC50 did it give?
Answer: 0.01 to 0.0999 µM

Question: `O=C(c1ccc(C[C@@H]2CC[C@H]([C@H](O)c3ccccc3)N2)cc1)N1CCC(N2C(=O)OCc3ccccc32)CC1` [Example 69] was tested. Which EC50 did it give?
Answer: 0.001 to 0.0099 µM

Question: For `O=C(c1ccc(C[C@@H]2CC[C@H]([C@H](O)c3ccccc3)N2)cc1)N1CCC(n2ccccc2=O)CC1` [Example 70], which EC50 is on record?
Answer: 0.1 to 0.999 µM

Question: For `O=C(c1ccc(C[C@@H]2CC[C@H]([C@H](O)c3cccnc3)N2)cc1)N1CCC(N2C(=O)OCc3ccccc32)CC1` [Example 71], which EC50 is on record?
Answer: 0.001 to 0.0099 µM

Question: With `O=C(c1ccc(C[C@@H]2CC[C@H]([C@H](O)c3ccccc3)N2)cc1)N1CCC(N2Cc3ccccc3NC2=O)CC1` [Example 72] as the compound, how does the EC50 read?
Answer: 0.1 to 0.999 µM

Question: Which EC50 does the source give for `O=C(c1ccc(C[C@@H]2CC[C@H]([C@H](O)c3ccccc3)N2)cc1)N1CCC(n2c(=O)[nH]c3nc(F)ccc32)CC1` [Example 73] here?
Answer: 0.01 to 0.0999 µM

Question: Which EC50 does the source give for `O=C(c1ccc(C[C@@H]2CC[C@H]([C@H](O)c3ccccc3)N2)cc1)N1CCC(n2c(=O)[nH]c3ccccc32)CC1` [Example 74] here?
Answer: 0.1 to 0.999 µM

Question: How did the EC50 turn out when `O=C(c1ccc(C[C@@H]2CC[C@H]([C@H](O)c3ccccc3)N2)cc1)N1CCC(n2c(=O)[nH]c3cc(Cl)ccc32)CC1` [Example 75] was run?
Answer: 0.1 to 0.999 µM

Question: For `O=C(c1ccc(C[C@@H]2CC[C@H]([C@H](O)c3ccccc3)N2)cc1)N1CCC(N2C(=O)NC3CCCCC32)CC1` (stereo partly drawn) [Example 76], which EC50 is on record?
Answer: 0.01 to 0.0999 µM

Question: `O=C(c1ccc(C[C@@H]2CC[C@H]([C@H](O)c3ccccc3)N2)cc1)N1CCC(c2nc3ccccc3o2)CC1` [Example 78] was tested. Which EC50 did it give?
Answer: 0.1 to 0.999 µM

Question: Which EC50 does the source give for `O=C(c1ccc(C[C@@H]2CC[C@H]([C@H](O)c3ccccc3)N2)cc1)N1CCC(c2ncc(-c3ccccc3)[nH]2)CC1` [Example 79] here?
Answer: 0.1 to 0.999 µM

Question: For `O=C(c1ccc(C[C@@H]2CC[C@H]([C@H](O)c3ccccc3)N2)cc1)N1CCC(n2cc(-c3ccccc3)nn2)CC1` [Example 80], which EC50 is on record?
Answer: 0.1 to 0.999 µM

Question: For `O=C(c1ccc(C[C@@H]2CC[C@H]([C@H](O)c3ccccc3)N2)cc1)N1CCC(c2nnc(-c3cnccn3)[nH]2)CC1` [Example 81], which EC50 is on record?
Answer: 0.1 to 0.999 µM

Question: `O=C(c1ccc(C[C@@H]2CC[C@H]([C@H](O)c3ccccc3)N2)cc1)N1CCC(c2nc(-c3cccnc3)no2)CC1` [Example 82] was tested. Which EC50 did it give?
Answer: 0.1 to 0.999 µM

Question: For `O=C(c1ccc(C[C@@H]2CC[C@H]([C@H](O)c3ccccc3)N2)cc1)N1CCC(c2nc(-c3cnccn3)no2)CC1` [Example 83], which EC50 is on record?
Answer: 0.1 to 0.999 µM

Question: `O=C(c1ccc(C[C@@H]2CC[C@H]([C@H](O)c3ccccc3)N2)cc1)N1CCC(n2cc(-c3ccccc3)[nH]c2=O)CC1` [Example 84] was tested. Which EC50 did it give?
Answer: 0.01 to 0.0999 µM

Question: For `O=C(c1ccc(C[C@@H]2CC[C@H]([C@H](O)c3cccnc3)N2)cc1)N1CCC(n2cc(-c3ccccc3)[nH]c2=O)CC1` [Example 85], which EC50 is on record?
Answer: 0.01 to 0.0999 µM

Question: Which EC50 does the source give for `Cc1cncn1C1CCN(C(=O)c2ccc(C[C@@H]3CC[C@H]([C@H](O)c4ccccc4)N3)cc2)CC1` [Example 86] here?
Answer: 0.1 to 0.999 µM

Question: How did the EC50 turn out when `Cc1cncn1C1CCN(C(=O)c2ccc(C[C@@H]3CC[C@H]([C@H](O)c4cccnc4)N3)cc2)CC1` [Example 87] was run?
Answer: 0.1 to 0.999 µM

Question: `COC(=O)c1csc(C2CCN(C(=O)c3ccc(C[C@@H]4CC[C@H]([C@H](O)c5ccccc5)N4)cc3)CC2)n1` [Example 88] was tested. Which EC50 did it give?
Answer: 0.01 to 0.0999 µM

Question: With `Cc1nc(C2CCN(C(=O)c3ccc(C[C@@H]4CC[C@H]([C@H](O)c5ccccc5)N4)cc3)CC2)ns1` [Example 89] as the compound, how does the EC50 read?
Answer: 0.1 to 0.999 µM

Question: With `O=C(c1ccc(C[C@@H]2CC[C@H]([C@H](O)c3ccccc3)N2)cc1)N1CCC(n2cnnc2)CC1` [Example 91] as the compound, how does the EC50 read?
Answer: 0.1 to 0.999 µM

Question: `O=C(c1ccc(C[C@@H]2CC[C@H]([C@H](O)c3ccccc3)N2)cc1)N1CCC(n2cncn2)CC1` [Example 92] was tested. Which EC50 did it give?
Answer: 0.01 to 0.0999 µM

Question: For `O=C(c1ccc(C[C@@H]2CC[C@H]([C@H](O)c3cccnc3)N2)cc1)N1CCC(n2nccn2)CC1` [Example 94], which EC50 is on record?
Answer: 0.1 to 0.999 µM

Question: How did the EC50 turn out when `Cc1cn(C2CCN(C(=O)c3ccc(C[C@@H]4CC[C@H]([C@H](O)c5ccccc5)N4)cc3)CC2)nn1` [Example 95] was run?
Answer: 0.01 to 0.0999 µM

Question: For `Cc1cnnn1C1CCN(C(=O)c2ccc(C[C@@H]3CC[C@H]([C@H](O)c4ccccc4)N3)cc2)CC1` [Example 96], which EC50 is on record?
Answer: 0.1 to 0.999 µM

Question: How did the EC50 turn out when `Cn1cc(C2CCN(C(=O)c3ccc(C[C@@H]4CC[C@H]([C@H](O)c5ccccc5)N4)cc3)CC2)nn1` [Example 97] was run?
Answer: 0.1 to 0.999 µM

Question: Which EC50 does the source give for `Cn1cnnc1C1CCN(C(=O)c2ccc(C[C@@H]3CC[C@H]([C@H](O)c4ccccc4)N3)cc2)CC1` [Example 98] here?
Answer: 0.1 to 0.999 µM

Question: Which EC50 does the source give for `Nc1nnc(C2CCN(C(=O)c3ccc(C[C@@H]4CC[C@H]([C@H](O)c5ccccc5)N4)cc3)CC2)o1` [Example 99] here?
Answer: 0.01 to 0.0999 µM

Question: With `O=C(c1ccc(C[C@@H]2CC[C@H]([C@H](O)c3ccccc3)N2)cc1)N1CCC(n2cnnn2)CC1` [Example 100] as the compound, how does the EC50 read?
Answer: 0.01 to 0.0999 µM

Question: With `Cc1nnnn1C1CCN(C(=O)c2ccc(C[C@@H]3CC[C@H]([C@H](O)c4ccccc4)N3)cc2)CC1` [Example 101] as the compound, how does the EC50 read?
Answer: 0.001 to 0.0099 µM

Question: With `O=C(c1ccc(C[C@@H]2CC[C@H]([C@H](O)c3ccccc3)N2)cc1)N1CCC(n2ncnn2)CC1` [Example 102] as the compound, how does the EC50 read?
Answer: 0.001 to 0.0099 µM

Question: For `Cc1nnn(C2CCN(C(=O)c3ccc(C[C@@H]4CC[C@H]([C@H](O)c5ccccc5)N4)cc3)CC2)n1` [Example 104], which EC50 is on record?
Answer: 0.1 to 0.999 µM

Question: How did the EC50 turn out when `O=C(c1ccc(C[C@@H]2CC[C@H]([C@H](O)c3ccccc3)N2)cc1)N1CCC(c2nn[nH]n2)CC1` [Example 105] was run?
Answer: 0.01 to 0.0999 µM

Question: `Cn1nnc(C2CCN(C(=O)c3ccc(C[C@@H]4CC[C@H]([C@H](O)c5ccccc5)N4)cc3)CC2)n1` [Example 106] was tested. Which EC50 did it give?
Answer: 0.01 to 0.0999 µM

Question: With `Cn1nnnc1C1CCN(C(=O)c2ccc(C[C@@H]3CC[C@H]([C@H](O)c4ccccc4)N3)cc2)CC1` [Example 108] as the compound, how does the EC50 read?
Answer: 0.001 to 0.0099 µM

Question: How did the EC50 turn out when `CC(C)n1nnnc1C1CCN(C(=O)c2ccc(C[C@@H]3CC[C@H]([C@H](O)c4ccccc4)N3)cc2)CC1` [Example 109] was run?
Answer: 0.001 to 0.0099 µM

Question: `O=C(c1ccc(C[C@@H]2CC[C@H]([C@H](O)c3ccccc3)N2)cc1)N1CCC(c2nnnn2C2CC2)CC1` [Example 110] was tested. Which EC50 did it give?
Answer: < 0.001 µM

Question: How did the EC50 turn out when `COC(=O)c1ccccc1C1CCN(C(=O)c2ccc(C[C@@H]3CC[C@H]([C@H](O)c4ccccc4)N3)cc2)CC1` [Example 111] was run?
Answer: 0.01 to 0.0999 µM

Question: Which EC50 does the source give for `O=C(c1ccc(C[C@@H]2CC[C@H]([C@H](O)c3ccccc3)N2)cc1)N1CCC(c2cccc(F)n2)CC1` [Example 112] here?
Answer: 0.01 to 0.0999 µM

Question: `O=C(c1ccc(C[C@@H]2CC[C@H]([C@H](O)c3cccnc3)N2)cc1)N1CCC(c2cccc(F)n2)CC1` [Example 113] was tested. Which EC50 did it give?
Answer: 0.01 to 0.0999 µM

Question: With `O=C(c1ccc(C[C@@H]2CC[C@H]([C@H](O)c3ccccc3)N2)cc1)N1CCC(c2ncccn2)CC1` [Example 114] as the compound, how does the EC50 read?
Answer: 0.1 to 0.999 µM

Question: With `COc1cc(OC)nc(C2CCN(C(=O)c3ccc(C[C@@H]4CC[C@H]([C@H](O)c5ccccc5)N4)cc3)CC2)n1` [Example 115] as the compound, how does the EC50 read?
Answer: 0.1 to 0.999 µM

Question: How did the EC50 turn out when `NC(=O)C1CCN(C(=O)c2ccc(C[C@@H]3CC[C@H]([C@H](O)c4ccccc4)N3)cc2)CC1` [Example 116] was run?
Answer: 0.1 to 0.999 µM

Question: Which EC50 does the source give for `O=C(O)C1CCN(C(=O)c2ccc(C[C@@H]3CC[C@H]([C@H](O)c4ccccc4)N3)cc2)CC1` [Example 117] here?
Answer: 0.1 to 0.999 µM

Question: With `CCOC(=O)C1CCN(C(=O)c2ccc(C[C@@H]3CC[C@H]([C@H](O)c4ccccc4)N3)cc2)CC1` [Example 118] as the compound, how does the EC50 read?
Answer: 0.01 to 0.0999 µM

Question: Which EC50 does the source give for `O=C(OCc1ccccc1)C1CCN(C(=O)c2ccc(C[C@@H]3CC[C@H]([C@H](O)c4ccccc4)N3)cc2)CC1` [Example 119] here?
Answer: 0.01 to 0.0999 µM

Question: `O=C(c1ncco1)C1CCN(C(=O)c2ccc(C[C@@H]3CC[C@H]([C@H](O)c4ccccc4)N3)cc2)CC1` [Example 120] was tested. Which EC50 did it give?
Answer: 0.01 to 0.0999 µM

Source: US8354403B2, “Pyrrolidine derived beta 3 adrenergic receptor agonists” (Merck Sharp & Dohme Corp., priority 2009, dated 2013)
